# Literature values, collected in patent publication US20250034331A1, “POLYESTER URETHANE BIORESORBABLE ELASTOMERS WITH MICROSTRUCTURES FOR TUNABLE DRUG RELEASE AND TUNABLE DEGRADATION” (SOLESIS, INC., priority 2023, published 2025).
# Legend:
# [1] = humans
solubility in PBS,time of excretion [1] [h],SMILES
about 75 μg/mL,–,C[C@@H]1C[C@H]2[C@@H]3CCC4=CC(=O)C=C[C@]4(C)[C@@]3(F)[C@@H](O)C[C@]2(C)[C@@]1(O)C(=O)CO [dexamethasone]
–,≤ 10,"NCCCCCCN [HDA, hexamethylene diamine]"
